The values that follow come from EP0402033A1, “Carboxamide derivatives” (OTSUKA PHARMACEUTICAL FACTORY, INC., priority 1989, dated 1990).

In data set [1] the test system is plasma high density lipoprotein cholesterol (HDLC). The data set can be described thus: Pharmacological Test - 1: increase of plasma HDLC concentration in rats after oral administration. The data set is classed as in vivo, Wistar strain male rats. Particulars: Wistar male rats, 300 mg/5 ml/kg/day for 2 days in 0.5%-CMC, blood taken after 20 hours fasting, relative to control group. How it is done: Seven-week-old Wistar strain male rats were used as the test animals. One test group consisting of six (6) rats. A test compound was suspended in a 0.5%-carboxymethyl cellulose (CMC) aqueous solution, thus prepared suspension containing the test compound was orally administered compulsorily by using a sonde to the rat in the amount of 300 mg/5 ml/kg/day for 2 days. Similar to the test group, to each of six (6) rats in the control group was administered with 0.5%-CMC aqueous solution without containing the test compound.
After the final administration was finished, the test rat was fasted for 20 hours, and the blood sample was taken from the rat. The concentration of plasma high density lipoprotein cholesterol (HDLC) was determined by using a measuring instrument of HDL-C kit-N (manufactured by Nihon Shoji Kabushiki Kaisha).
Increasing ratio (%) of plasma HDLC concentration performed by a test compound was calculated from the formula as follows: [formula]

The test system of the next data set is erythrocytes. The data set can be described thus: Pharmacological Test - 2 (Hemolysis test) in mice after oral administration. Particulars: ddY male mice, 600 mg/5 ml/kg/day for 10 days, 20 hours fasting, mean of test group divided by mean of control group. The data set is classed as in vivo, ddY-strain male mice. How it is done:
Seven-week-old ddY-strain male mice were used as test animals. One test group consisting of six (6) mice. A test compound was suspended in a 0.5%-carboxymethyl cellulose (CMC) aqueous solution, thus prepared suspension containing the test compound was orally administered compulsorily by using a sonde to the mouse in the amount of 600 mg/5 ml/kg/day for 10 days. Similar to the above, to each of six mice in the control group was administered with 0.5%-CMC aqueous soluiton without containing the test compound.
After the final administration was finished, the mouse was fasted for 20 hours, then the mouse was subjected to dissection and the blood sample as well as the sample of the spleen were taken by enucleation. The number of the erythrocytes was counted and the weight of the spleen was measured.
The ratio of number of the erythrocytes was calculated by dividing the mean value of number of the erythrocytes obtained from the test group by the mean value of number of the erythrocytes obtained from the control group. Similarly, the ratio of weight of the spleen was calculated by dividing the mean value of weight of the spleen obtained from the test group by the mean value of weight of the spleen obtained from the control group.

Take `CCOP(=O)(Cc1ccc(C(=O)Nc2ccc(I)cc2C#N)cc1)OCC` [Compound of Example 4]: in data set [1], the “Increasing ratio (%) of the plasma HDLC concentration” value (“Increasing ratio (%)” below) is given as 187%.
Consider `CCOP(=O)(Cc1ccc(C(=O)Nc2ccc(C#N)cc2Cl)cc1)OCC` [Compound of Example 3], for which the “Increasing ratio (%)” value in data set [1] was 187%.
As to `CCOP(=O)(Cc1ccc(C(=O)Nc2ccc(C#N)cc2Br)cc1)OCC` [Compound of Example 5], the “Increasing ratio (%)” value in data set [1] is reported as 222%. In the data set with erythrocytes, the “Ratio of number of the erythrocytes” value was 1.07 and the “Ratio of weight of the spleen” value stood at 0.94.
With `CCOP(=O)(Cc1ccc(C(=O)Nc2ccc(C#N)cc2I)cc1)OCC` [Compound of Example 7], the “Increasing ratio (%)” value in data set [1] was 184%.
Take `CCOP(=O)(Cc1ccc(C(=O)Nc2ccc(Cl)cc2C#N)cc1)OCC` [Compound of Example 2]: in data set [1], the “Increasing ratio (%)” value is reported as 196%. In addition, in the data set on erythrocytes, the “Ratio of number of the erythrocytes” value is given as 0.97 and the “Ratio of weight of the spleen” value turned out to be 1.09.
In the case of `CCOP(=O)(Cc1ccc(C(=O)Nc2ccc(Br)cc2C#N)cc1)OCC` [Compound of Example 1, 4-diethoxyphosphinoylmethyl-N-(4-bromo-2-cyanophenyl)benzamide], the “Increasing ratio (%)” value in data set [1] was determined as 193%. For the same compound, in the data set with erythrocytes, the “Ratio of number of the erythrocytes” value is on record as 0.96 and the “Ratio of weight of the spleen” value was 1.13.
